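The concentration for 50% growth inhibition is given as GI50. Definition used: TGI = concentration required for complete inhibition of growth.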
Legend:
Assay in all cases: growth of human tumour cells (NCI), 384-well format
T-47D breast = tested on: T-47D breast
SN12C renal = tested on: SN12C renal
OVCAR-8 ovarian = tested on: OVCAR-8 ovarian
OVCAR-5 ovarian = tested on: OVCAR-5 ovarian
TK-10 renal = tested on: TK-10 renal
SK-OV-3 ovarian = tested on: SK-OV-3 ovarian
HT29 colon = tested on: HT29 colon
HL-60(TB) leukemia = tested on: HL-60(TB) leukemia
SNB-75 CNS = tested on: SNB-75 CNS
SF-539 CNS = tested on: SF-539 CNS
COLO 205 colon = tested on: COLO 205 colon
786-0 renal = tested on: 786-0 renal
OVCAR-4 ovarian = tested on: OVCAR-4 ovarian
MDA-MB-231 breast = tested on: MDA-MB-231 breast
NCI/ADR-RES ovarian = tested on: NCI/ADR-RES ovarian
MCF7 breast = tested on: MCF7 breast
UACC-257 melanoma = tested on: UACC-257 melanoma
NCI-H23 lung = tested on: NCI-H23 lung
A498 renal = tested on: A498 renal
HS 578T breast = tested on: HS 578T breast
NCI-H322M lung = tested on: NCI-H322M lung
EKVX NSCLC = tested on: EKVX NSCLC
LOX IMVI melanoma = tested on: LOX IMVI melanoma
KM12 colon = tested on: KM12 colon
U251 glioblastoma = tested on: U251 glioblastoma
MALME-3M melanoma = tested on: MALME-3M melanoma
MDA-MB-435 melanoma = tested on: MDA-MB-435 melanoma
SF-295 CNS = tested on: SF-295 CNS
HCT-15 colon = tested on: HCT-15 colon
OVCAR-3 ovarian = tested on: OVCAR-3 ovarian
BT-549 breast = tested on: BT-549 breast
DU-145 prostate = tested on: DU-145 prostate
CCRF-CEM leukemia = tested on: CCRF-CEM leukemia
SF-268 CNS = tested on: SF-268 CNS
M14 melanoma = tested on: M14 melanoma
UACC-62 melanoma = tested on: UACC-62 melanoma
MOLT-4 leukemia = tested on: MOLT-4 leukemia
NCI-H460 NSCLC = tested on: NCI-H460 NSCLC
RPMI-8226 leukemia = tested on: RPMI-8226 leukemia
SK-MEL-2 melanoma = tested on: SK-MEL-2 melanoma
PC-3 prostate = tested on: PC-3 prostate
ACHN renal = tested on: ACHN renal
SK-MEL-5 melanoma = tested on: SK-MEL-5 melanoma
SW-620 colon = tested on: SW-620 colon
HCC-2998 colon = tested on: HCC-2998 colon
SK-MEL-28 melanoma = tested on: SK-MEL-28 melanoma
HOP-62 NSCLC = tested on: HOP-62 NSCLC
RXF 393 renal = tested on: RXF 393 renal
NCI-H522 lung = tested on: NCI-H522 lung

C[C@@H](Oc1ccc2[nH]nc(/C=C/c3cnn(CCO)c3)c2c1)c1c(Cl)cncc1Cl
GI50 (T-47D breast): 263 nM
TGI (T-47D breast): > 100000 nM
GI50 (SN12C renal): 47.7 nM
TGI (SN12C renal): 343 nM
GI50 (OVCAR-8 ovarian): 174 nM
TGI (OVCAR-8 ovarian): 1450 nM
GI50 (OVCAR-5 ovarian): 111 nM
TGI (OVCAR-5 ovarian): 475 nM
GI50 (TK-10 renal): 98.6 nM
TGI (TK-10 renal): 606 nM
GI50 (SK-OV-3 ovarian): 114 nM
GI50 (HT29 colon): 278 nM
TGI (HT29 colon): > 100000 nM
GI50 (HL-60(TB) leukemia): 31.7 nM
TGI (HL-60(TB) leukemia): 131 nM
GI50 (SNB-75 CNS): 23.4 nM
TGI (SNB-75 CNS): 213 nM
GI50 (SF-539 CNS): 23.7 nM
TGI (SF-539 CNS): 154 nM
GI50 (COLO 205 colon): 24.8 nM
TGI (COLO 205 colon): 105 nM
GI50 (786-0 renal): 214 nM
TGI (786-0 renal): 1200 nM
GI50 (OVCAR-4 ovarian): 1500 nM
TGI (OVCAR-4 ovarian): 4750 nM
GI50 (MDA-MB-231 breast): 161 nM
TGI (MDA-MB-231 breast): 3450 nM
GI50 (NCI/ADR-RES ovarian): 227 nM
TGI (NCI/ADR-RES ovarian): 1410 nM
GI50 (MCF7 breast): 46.3 nM
TGI (MCF7 breast): 1600 nM
GI50 (UACC-257 melanoma): 1150 nM
TGI (UACC-257 melanoma): 2530 nM
GI50 (NCI-H23 lung): 43.3 nM
TGI (NCI-H23 lung): 333 nM
GI50 (A498 renal): 171 nM
TGI (A498 renal): > 100000 nM
GI50 (HS 578T breast): 29.7 nM
TGI (HS 578T breast): 229 nM
GI50 (NCI-H322M lung): 331 nM
TGI (NCI-H322M lung): 2480 nM
GI50 (EKVX NSCLC): 36.8 nM
TGI (EKVX NSCLC): 757 nM
GI50 (LOX IMVI melanoma): 70 nM
TGI (LOX IMVI melanoma): 199 nM
GI50 (KM12 colon): < 10 nM
TGI (KM12 colon): 145 nM
GI50 (U251 glioblastoma): 156 nM
TGI (U251 glioblastoma): 766 nM
GI50 (MALME-3M melanoma): 1120 nM
TGI (MALME-3M melanoma): 2340 nM
GI50 (MDA-MB-435 melanoma): 1140 nM
TGI (MDA-MB-435 melanoma): 2500 nM
GI50 (SF-295 CNS): 71.1 nM
TGI (SF-295 CNS): 2060 nM
GI50 (HCT-15 colon): 117 nM
TGI (HCT-15 colon): 1250 nM
GI50 (OVCAR-3 ovarian): 74.5 nM
TGI (OVCAR-3 ovarian): 1570 nM
GI50 (BT-549 breast): 61.2 nM
TGI (BT-549 breast): 229 nM
GI50 (DU-145 prostate): 97.2 nM
TGI (DU-145 prostate): 755 nM
GI50 (CCRF-CEM leukemia): 25.5 nM
TGI (CCRF-CEM leukemia): 60.5 nM
GI50 (SF-268 CNS): 124 nM
TGI (SF-268 CNS): 384 nM
GI50 (M14 melanoma): 331 nM
TGI (M14 melanoma): 2040 nM
GI50 (UACC-62 melanoma): 1290 nM
TGI (UACC-62 melanoma): 2590 nM
GI50 (MOLT-4 leukemia): 19.5 nM
TGI (MOLT-4 leukemia): 48.8 nM
GI50 (NCI-H460 NSCLC): 37 nM
TGI (NCI-H460 NSCLC): 1090 nM
GI50 (RPMI-8226 leukemia): 34.3 nM
TGI (RPMI-8226 leukemia): 1330 nM
GI50 (SK-MEL-2 melanoma): 606 nM
TGI (SK-MEL-2 melanoma): 2130 nM
GI50 (PC-3 prostate): 1280 nM
TGI (PC-3 prostate): > 100000 nM
GI50 (ACHN renal): 85.8 nM
TGI (ACHN renal): > 100000 nM
GI50 (SK-MEL-5 melanoma): 510 nM
TGI (SK-MEL-5 melanoma): 1920 nM
GI50 (SW-620 colon): 60.5 nM
TGI (SW-620 colon): 469 nM
GI50 (HCC-2998 colon): 399 nM
TGI (HCC-2998 colon): 2120 nM
GI50 (SK-MEL-28 melanoma): 1310 nM
TGI (SK-MEL-28 melanoma): 2630 nM
GI50 (HOP-62 NSCLC): 82 nM
TGI (HOP-62 NSCLC): 1080 nM
GI50 (RXF 393 renal): 54.4 nM
TGI (RXF 393 renal): 230 nM
GI50 (NCI-H522 lung): 31 nM
TGI (NCI-H522 lung): 554 nM
